From US7452869B2, “NIP3 family of proteins” (University of Manitoba, priority 2000, dated 2008)
“Also recorded” adds a separate entry of the source.

Legend:
BNIP3 [1] = assay: western blot of BNIP3 in neonatal cardiac myocytes treated with lactacystin (FIG. 12); assay type: cell-based; conditions: hypoxic or normoxic 24 hours
Protocol: Neonatal cardiac myocytes were incubated in hypoxic (+) or normoxic (−) conditions for 24 hours. Cells were treated with lactacystin at the indicated concentrations and lysates harvested for western blotting with anti-BNIP3 antibody. BNIP3 band is indicated with an arrow.

[2] = system: mitochondrial permeability transition pore; assay: mitochondrial permeability transition in ventricular myocytes, calcein-AM with cobalt chloride; assay type: cell-based, rat; conditions: Bongkrekic acid 50 μmol/L
Text: To monitor mitochondrial permeability transition (PT), ventricular myocytes were loaded with 5 μmol/L calcein-acetoxymethylester (calcein-AM, Molecular Probes) in the presence of 2 to 5 mmol/L cobalt chloride as previously reported (Gurevich et al., 2001; Petronilli et al., 1998).

PT pore = assay: mitochondrial Dcm (DiOC6), ROS production (HE) and PI staining by flow cytometry in BNIP3-transfected 293T cells; assay type: cell-based
Protocol: Changes in mitochondrial function were determined by incubating 10 6 293T cells, transiently transfected via the CaP04 method, with either 1 mM JC-1, 40 nM DiOC6, or 2 mM dihydroethidium (HE) (all from Molecular Probes, Inc.) for 30 minutes at 37° C. in Hanks' balanced salt solution (Gibco-BRL). Cells were scored using a FACScalibur flow cytometer (Becton-Dickinson, San Jose, Calif.), and data were analyzed on Celiquest software, version 3.1 (Becton-Dickinson). Controls were performed in the presence or absence of […] mClCCP (Sigma) or an excess of 30% H2 02. For inhibition experiments, cyclosporin A (Sigma) or bongkrekic acid (a gift from J. A. Duine, Delft University, Delft, The Netherlands) was added 2 hours prior to transfection. All cells were harvested 8 hours after transfection and stained with 40 nM DiOC6, 2 mM HE, or 1 mg of propidium iodide (PI) (Sigma) per ml. In all cases, samples were gated to exclude cellular debris.

ventricular myocytes = assay: cell viability of ventricular myocytes, calcein acetoxymethyl ester / ethidium homodimer-1; assay type: cell-based; conditions: Bongkrekic acid 50 μmol/L
Protocol: Ventricular myocytes were isolated from 1- to 2-day-old Sprague-Dawley rats (University of Manitoba, Winnipeg, Canada) and submitted to primary culture as reported (Kirshenbaum and Schneider, 1995). Myocytes were subjected to hypoxia for 24 hours in an air-tight chamber continually gassed with 95% N2-5% CO2, as previously reported (Moissac et al., 2000; Long et al., 1997; Tanaka et al., 1994). Adult rat hearts (n=3) were excised from adult rats (250 to 300 g) and subjected to global hypoxia for 1 hour on a modified Langendorff perfusion system with buffer continually gassed with 95% N2-5% CO2, as previously reported (Kirshenbaum, 1993). Heart failure was induced in rats by surgical ligation of the left anterior descending coronary artery, as previously reported (Dixon et al., 1992). Non-failing sham control hearts and those with heart failure were excised from animals 8 weeks after myocardial infarction. Hearts (n=3) were dissected to remove the infarcted scar tissue, and the left ventricular free wall was homogenized and analyzed by Western blot for BNIP3 expression. Animals were handled according to guidelines established by the University of Manitoba and Canadian Council on Animal Care.
The cDNAs for BNIP3 full-length (BNIP3) and carboxyl terminal transmembrane domain deletion mutant (BNIP3ΔTM) have been described previously (Vande et al., 2000). Recombinant adenoviruses encoding the full-length BNIP3 or transmembrane deletion mutant are designated AdBNIP3 or AdBNIP3ΔTM, respectively, and generated as reported previously (Kirshenbaum et al., 1993).
Cell viability was determined using the vital dyes 2 μmol/L calcein acetoxymethyl ester (green) to determine the number of living cells and 2 μmol/L ethidium homodimer-1 (red) (Molecular Probes) to identify the number of dead cells (Kirshenbaum and Schneider, 1995). The number of green cells versus red cells was used to determine changes in cell viability (Moissac et al., 2000). Cells were analyzed from at least n=3 independent myocyte isolations counting ≧200 cells for each condition tested. Data are expressed as mean±SE percent reduction from control.

[3] = system: primary hippocampal neurons; assay: excitotoxic cell death of primary hippocampal neurons, trypan blue exclusion; assay type: cell-based, rat
Protocol: (§1) Primary hippocampal neurons were prepared from 18-day-old embryonic Sprague-Dawley rats as described previously by Haughey, N. J. et al. (2001). Briefly, hippocampal tissue was dissociated by gentle tituration in a calcium-free Hank's balanced salt solution and was centrifuged at 1000×g. Cells were resuspended in Dulbecco's modified Eagle's medium (DMEM)/F12 nutrient mixture containing 10% heat-inactivated fetal bovine serum and 1% antibiotic solution (104 IU of penicillin G/ml, 10 mg streptomycin/ml and 25 μg amphotericin B/ml) in 0.9% NaCl (Sigma, St Louis, Mo., USA). Hippocampal neurons were plated at a density of 2×10^5 cells/ml on 12-mm diameter poly d-lysine-coated glass coverslips. Three hours after plating, the media was replaced with serum-free Neurobasal media containing 1% B-27 supplement (Gibco, Rockville, Md., USA).
To determine the extent to which NMDA-type glutamate receptors were involved in BNIP3 expression and excitotoxic cell death, the inventors used the agonist NMDA (100 μM) in the absence or presence of the NMDA receptor antagonist MK-801 (10 μM). To determine the extent to which caspase activation contributes to BNIP3-mediated cell death, hippocampal cells were incubated in the absence or presence of the broad spectrum cell permeable caspase inhibitors z-VAD-FMK (50 μM) and BOC-D-FMK (50 μM); these inhibitors were applied 30 minutes prior to application of glutamate or NMDA. […]
In vitro cell death was estimated using trypan blue exclusion. Cells were incubated in 0.4% trypan blue solution for 30 minutes and then counted on a bright-field microscope. Nonviable cells were distinguished by their dark blue staining. To examine nuclear morphology, nuclear DNA was stained with Hoescht 33342. DNA fragmentation was detected by TUNEL using an in situ cell death detection kit with fluorescein. Statistical analyses were by ANOVA with Tukey's post-test.

BNIP3 [4] = assay: BNIP3 immunohistochemistry in primary hippocampal neurons after glutamate; assay type: cell-based, rat; conditions: 100 μM glutamate
Protocol: as §1
For immunohistochemistry and in situ hybridization, rats were perfused transcardially with 0.9% saline and then 4% paraformaldehyde. Brains were carefully removed and post-fixed overnight in PBS containing 4% paraformaldehyde. After rinsing in PBS, the brains were placed in PBS containing 0.5 M sucrose (pH 7.3) at 4° C. until buoyancy was lost. […] Brain sections were hybridized with the probe, incubated with an alkaline phosphatase-conjugated anti-digoxigenin antibody, and labeled cells were detected with BCIP/NBT.

BNIP3 [5] = assay: intrastriatal injection in rats, BNIP3 immunohistochemistry and in situ hybridization; assay type: in vivo; conditions: rat
Protocol: Male Sprague-Dawley rats, with body weights ranging between 200 to 250 g, were obtained from the University of Manitoba Central Animal Care breeding facility. All procedures followed Canadian Council on Animal Care guidelines and were approved by the Animal Care Committee at the University of Manitoba. Animals were anesthetized with 74 mg/kg sodium pentobarbital (i.p.) and placed in a stereotaxic surgery frame. Unilateral intrastriatal injections were performed using the following coordinates (in mm); AP […], ML 3.0 and DV 4.5 (Paxinos, G. et al. (1986)). Drugs were administered over a 5 minute period in a volume of 1 μl using a 10 μl syringe fitted with a 30-gauge needle. Following injection, the needle was left in place for 5 minutes before being slowly withdrawn to allow diffusion of the drug away from the injection site. Kainic acid, dissolved in 50 mM Tris-HCl with the pH adjusted to 7.4 with NaOH, was administered at a dose of 2.5 nmol. Control rats received unilateral injections of 1 μl 50 mM Tris-HCl, pH 7.4. […]
For immunohistochemistry and in situ hybridization, rats were perfused transcardially with 0.9% saline and then 4% paraformaldehyde. […] Brain sections were hybridized with the probe, incubated with an alkaline phosphatase-conjugated anti-digoxigenin antibody, and labeled cells were detected with BCIP/NBT.

[6] = drug 2 hours prior to transfection, harvested 8 hours posttransfection, 25 and 50 mM cyclosporin A, 100 mM bongkrekic acid

`CC(=O)N[C@@H](CSC(=O)[C@]1([C@@H](O)C(C)C)NC(=O)[C@H](C)[C@@H]1O)C(=O)O` [Lactacystin] was tested, and the “degradation of the BNIP3 protein (western blot)” value (BNIP3 [1]) was “slows the degradation”.

`CO[C@H](C/C=C\C=C\CC/C=C/C[C@H](C)/C=C/C(=C\C(=O)O)CC(=O)O)/C(C)=C\C=C(/C)C(=O)O` [bongkrekic acid] was tested, and the “BNIP3-induced loss of mitochondrial calcein staining” value [2] was “suppressed”, the “maximum suppression of BNIP3 effects, of that in control cells” value (PT pore; Dcm suppression, ROS generation and cell death) was “about 50%” and the “cell death (PI staining) in BNIP3 transfectants” value (PT pore; drug 2 hours prior to transfection, harvested 8 hours posttransfection, 50 mM cyclosporin A, 100 mM bongkrekic acid) was “dose-dependent reversal; also recorded: significantly suppressed”. For the same compound, the “Dcm suppression (DiOC6) in BNIP3 transfectants” value (PT pore; [6]) was “dose-dependent reversal; also recorded: significantly inhibited”, the “ROS generation (HE fluorescence) in BNIP3 transfectants” value (PT pore; [6]) was “dose-dependent reversal; also recorded: inhibited” and the “BNIP3-induced mitochondrial defects and cell death” value (ventricular myocytes) was “prevented”.

In the case of `N[C@@H](CCC(=O)O)C(=O)O` [glutamate], the hippocampal neurons killed ([3]; 10 μM glutamate for 6 hours, then Neurobasal media 24 hours) is reported as 40%, the “cells stained positively for trypan blue” value ([3]; 100 μM glutamate for 6 hours, then Neurobasal media 24 hours) is reported as 70% and the “neuronal cell death (trypan blue exclusion)” value ([3]; 6 hours after application, p<0.01) is reported as “significantly increased”. The “cells stained positive for BNIP3” value (BNIP3 [4]) was “more than 50%”.

`C=C(C)[C@H]1CN[C@H](C(=O)O)[C@H]1CC(=O)O` [kainic acid] was tested, and the “BNIP3 expression in striatum (immunohistochemistry)” value (BNIP3 [5]; intrastriatal 1 μl, 2.5 nmol kainic acid, 5 nmol CNQX alone or mixed with kainic acid, 48 hours) was “observed only in those rats that received kainic acid alone” and the “levels of BNIP3 mRNA (in situ hybridization)” value (BNIP3 [5]; intrastriatal kainic acid) was “increased”.
